Columns and labels:
morningglory = assay: Test B pre-/postemergence herbicide test; format: in vivo, Ipomoea coccinea; settings: for Plant response rating, Morningglory: preemergence; for Morningglory plant response rating: postemergence, visual rating, scale 0 (no effect) to 100 (complete control)
Method in brief: (§1)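 Evaluation is visual, comparing treated with control plants on a scale where 0 means no effect and 100 means full control. Treatments were preemergence, or postemergence on seedlings 2–18 cm tall, and held 13–15 days in the greenhouse.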

Surinam grass = assay: Test B pre-/postemergence herbicide test; format: in vivo, Urochloa decumbens; settings: for Surinam Grass plant response rating: postemergence, visual rating
Method in brief: (§2)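 Response was scored visually 13 to 15 days after treatment against untreated greenhouse controls, 0 meaning no effect and 100 complete control. Formulations (solvent mixture plus surfactant) went onto soil after planting, onto foliage of 1- to 4-leaf plants, and onto 2-leaf plants in a flooded paddy set including rice and barnyardgrass.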

cocklebur = assay: Test B pre-/postemergence herbicide test; format: in vivo, Xanthium strumarium; settings: for Cocklebur plant response rating: postemergence, visual rating
Method in brief: as §1

ducksalad = assay: Test B flooded paddy test; format: in vivo, Heteranthera limosa; settings: 1000 g ai/ha, visual rating, scale 0 to 100 (0 no effect, 100 complete control), 13 to 15 days
Method in brief: (§3)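 Each value is a visual 0–100 response rating taken against controls 13 to 15 days after treatment in the greenhouse. Plants received formulated chemical postemergence at the 1- to 4-leaf stage or, in flooded paddy, at the 2-leaf stage.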

barnyardgrass [1] = assay: Test B flooded paddy test; format: in vivo, Echinochloa crus-galli; settings: 1000 g ai/ha, visual rating, scale 0 to 100 (0 no effect, 100 complete control), 13 to 15 days
Method in brief: as §3

corn = assay: Test B pre-/postemergence herbicide test; format: in vivo, Zea mays; settings: for Plant response rating, Corn: preemergence; for Corn plant response rating: postemergence, visual rating, scale 0 (no effect) to 100 (complete control)
Method in brief: as §2

blackgrass = assay: Test B postemergence herbicide test; format: in vivo, Alopecurus myosuroides; settings: scale 0 (no effect) to 100 (complete control); for Blackgrass plant response rating: postemergence, visual rating
Method in brief: as §3

large crabgrass = assay: Test B pre-/postemergence herbicide test; format: in vivo, Digitaria sanguinalis; settings: for Crabgrass, Large plant response rating: postemergence, visual rating
Method in brief: as §2

[2] = tested on: small flower umbrella sedge; assay: Test B flooded paddy test; format: in vivo, Cyperus difformis; settings: 1000 g ai/ha, visual rating, scale 0 to 100 (0 no effect, 100 complete control), 13 to 15 days
Method in brief: as §3

barnyardgrass [3] = assay: Test B pre-/postemergence herbicide test; format: in vivo, Echinochloa crus-galli; settings: for Barnyardgrass plant response rating: postemergence, visual rating
Method in brief: as §1

wild oat = assay: Test B postemergence herbicide test; format: in vivo, Avena fatua; settings: scale 0 (no effect) to 100 (complete control); for Oat, Wild plant response rating: postemergence, visual rating
Method in brief: (§4)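 Read-out: visual comparison with controls, scored 0 to 100, where 100 means complete control and 0 no effect. Formulated chemicals were applied postemergence to plants 2–18 cm tall (1- to 4-leaf), or to flooded-paddy plants at the 2-leaf stage, then held 13 to 15 days under glass.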

wheat = assay: Test B postemergence herbicide test; format: in vivo, Triticum aestivum; parameters: key to Wheat plant response rating: 0 = no effect, 100 = complete control; settings: scale 0 (no effect) to 100 (complete control); for Wheat plant response rating: postemergence, visual rating
Method in brief: as §4

pigweed = assay: Test B pre-/postemergence herbicide test; format: in vivo, Amaranthus retroflexus; settings: for Pigweed plant response rating: postemergence, visual rating
Method in brief: as §2

lambsquarters = assay: Test B pre-/postemergence herbicide test; format: in vivo, Chenopodium album; settings: for Lambsquarters plant response rating: postemergence, visual rating
Method in brief: as §2

velvetleaf = assay: Test B pre-/postemergence herbicide test; format: in vivo, Abutilon theophrasti; settings: for Velvetleaf plant response rating: postemergence, visual rating
Method in brief: as §2

rice = assay: Test B flooded paddy test; format: in vivo, Oryza sativa; settings: 1000 g ai/ha, visual rating, scale 0 to 100 (0 no effect, 100 complete control), 13 to 15 days
Method in brief: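 Postemergence plants were sprayed with formulated test chemicals at 2 to 18 cm height (1- to 4-leaf stage); paddy species were grown to the 2-leaf stage. After 13 to 15 days in a greenhouse, injury was rated visually against untreated controls on a 0–100 scale (0 = no effect, 100 = complete control).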

[4] = 125 g ai/ha, 0 to 100 scale, 0 is no effect, 100 is complete control
[5] = 500 g ai/ha, visual rating 0-100, 0 no effect, 100 complete control, preemergence
[6] = Postemergence, 500 g ai/ha, visual rating after 13 to 15 days, scale 0 (no effect) to 100 (complete control)
[7] = 125 g ai/ha, scale 0 (no effect) to 100 (complete control)
[8] = preemergence, 125 g ai/ha, 0 to 100 scale, 0 is no effect, 100 is complete control
[9] = 500 g ai/ha, visual rating 0-100, 0 no effect, 100 complete control
[10] = Postemergence, 500 g ai/ha, visual rating after 13 to 15 days
[11] = 500 g ai/ha, scale 0 (no effect) to 100 (complete control)

C=Cn1nc(C(C)(C)C)cc1C(=O)Nc1cccc(C(C)=NO)c1 [Compound 114]
Plant response rating, Morningglory (morningglory; [4]): 10 | Plant response rating, Surinam Grass (Surinam grass; [5]): 30 | Plant response rating, Surinam Grass (Surinam grass; [6]): 20 | Surinam Grass plant response rating (Surinam grass; [7]): 10 | Plant response rating, Surinam Grass (Surinam grass; [8]): 20 | Plant response rating, Cocklebur (cocklebur; [5]): 10 | Plant response rating, Cocklebur (cocklebur; [6]): 90 | Cocklebur plant response rating (cocklebur; [7]): 80 | Plant response rating, Cocklebur (cocklebur; [8]): 10 | Ducksalad plant response rating (ducksalad): 80 | Barnyardgrass plant response rating (barnyardgrass [1]): 70 | Plant response rating, Corn (corn; [9]): 10 | Plant response rating, Corn (corn; [4]): 0 | Plant response rating, Blackgrass (blackgrass; [10]): 30 | Blackgrass plant response rating (blackgrass; 125 g ai/ha): 10 | Plant response rating, Crabgrass, Large (large crabgrass; [5]): 100 | Plant response rating, Crabgrass, Large (large crabgrass; [6]): 40 | Crabgrass, Large plant response rating (large crabgrass; [7]): 30 | Plant response rating, Crabgrass, Large (large crabgrass; [8]): 90 | Sedge, Umbrella plant response rating [2]: 90 | Plant response rating, Barnyardgrass (barnyardgrass [3]; [5]): 80 | Plant response rating, Barnyardgrass (barnyardgrass [3]; [6]): 30 | Barnyardgrass plant response rating (barnyardgrass [3]; [7]): 20 | Plant response rating, Barnyardgrass (barnyardgrass [3]; [8]): 50 | Plant response rating, Oat, Wild (wild oat; [10]): 10 | Oat, Wild plant response rating (wild oat; 125 g ai/ha): 10 | Plant response rating, Wheat (wheat; [10]): 20 | Wheat plant response rating (wheat; 125 g ai/ha): 20 | Plant response rating, Pigweed (pigweed; [5]): 100 | Plant response rating, Pigweed (pigweed; [6]): 100 | Pigweed plant response rating (pigweed; [7]): 90 | Plant response rating, Pigweed (pigweed; [8]): 80 | Plant response rating, Lambsquarters (lambsquarters; [5]): 100 | Plant response rating, Lambsquarters (lambsquarters; [6]): 90 | Lambsquarters plant response rating (lambsquarters; [7]): 80 | Plant response rating, Lambsquarters (lambsquarters; [8]): 100 | Plant response rating, Velvetleaf (velvetleaf; [5]): 60 | Plant response rating, Velvetleaf (velvetleaf; [6]): 60 | Velvetleaf plant response rating (velvetleaf; [7]): 50 | Plant response rating, Velvetleaf (velvetleaf; [8]): 40 | Rice plant response rating (rice): 50

CCn1nc(C(C)(C)C)cc1C(=O)Nc1cccc(SC)c1 [Compound 131]
Plant response rating, Morningglory (morningglory; [9]): 30 | Morningglory plant response rating (morningglory; 125 g ai/ha): 20 | Morningglory plant response rating (morningglory; 500 g ai/ha): 60 | Plant response rating, Morningglory (morningglory; [4]): 10 | Plant response rating, Surinam Grass (Surinam grass; [5]): 60 | Surinam Grass plant response rating (Surinam grass; [7]): 20 | Surinam Grass plant response rating (Surinam grass; [11]): 60 | Plant response rating, Surinam Grass (Surinam grass; [8]): 10 | Plant response rating, Cocklebur (cocklebur; [5]): 10 | Cocklebur plant response rating (cocklebur; [7]): 70 | Cocklebur plant response rating (cocklebur; [11]): 100 | Plant response rating, Cocklebur (cocklebur; [8]): 0 | Ducksalad plant response rating (ducksalad): 80 | Barnyardgrass plant response rating (barnyardgrass [1]): 70 | Plant response rating, Corn (corn; [9]): 0 | Corn plant response rating (corn; 125 g ai/ha): 20 | Corn plant response rating (corn; 500 g ai/ha): 20 | Plant response rating, Corn (corn; [4]): 0 | Blackgrass plant response rating (blackgrass; 125 g ai/ha): 10 | Blackgrass plant response rating (blackgrass; 500 g ai/ha): 20 | Plant response rating, Crabgrass, Large (large crabgrass; [5]): 100 | Crabgrass, Large plant response rating (large crabgrass; [7]): 20 | Crabgrass, Large plant response rating (large crabgrass; [11]): 30 | Plant response rating, Crabgrass, Large (large crabgrass; [8]): 50 | Sedge, Umbrella plant response rating [2]: 80 | Plant response rating, Barnyardgrass (barnyardgrass [3]; [5]): 90 | Barnyardgrass plant response rating (barnyardgrass [3]; [7]): 10 | Barnyardgrass plant response rating (barnyardgrass [3]; [11]): 50 | Plant response rating, Barnyardgrass (barnyardgrass [3]; [8]): 70 | Oat, Wild plant response rating (wild oat; 125 g ai/ha): 20 | Oat, Wild plant response rating (wild oat; 500 g ai/ha): 20 | Wheat plant response rating (wheat; 125 g ai/ha): 10 | Wheat plant response rating (wheat; 500 g ai/ha): 20 | Plant response rating, Pigweed (pigweed; [5]): 100 | Pigweed plant response rating (pigweed; [7]): 30 | Pigweed plant response rating (pigweed; [11]): 60 | Plant response rating, Pigweed (pigweed; [8]): 100 | Plant response rating, Lambsquarters (lambsquarters; [5]): 100 | Lambsquarters plant response rating (lambsquarters; [7]): 80 | Lambsquarters plant response rating (lambsquarters; [11]): 90 | Plant response rating, Lambsquarters (lambsquarters; [8]): 100 | Plant response rating, Velvetleaf (velvetleaf; [5]): 100 | Velvetleaf plant response rating (velvetleaf; [7]): 10 | Velvetleaf plant response rating (velvetleaf; [11]): 40 | Plant response rating, Velvetleaf (velvetleaf; [8]): 50 | Rice plant response rating (rice): 60
